Key:
Assay type in all cases: binding
CtKti12 [1] = target: T1, CtKti12 (Thermochaetoides thermophila, UniProt G0SHI1); assay: thermal shift assay (SYPRO Orange); conditions: 1 mM ATP, 2 mM MgCl2, 20 mM Tris-HCl pH 7.5, 150 mM NaCl, 2 mM DTT; 0.6 °C/min
T1 construct: gene CTHT_0070100; full-length, codon-optimized ORF in pET24d (NcoI/XhoI), purified from bacteria; PDB 6QP0 (earlier work) covers the ATPase domain only
T1 sequence (G0SHI1 1-378): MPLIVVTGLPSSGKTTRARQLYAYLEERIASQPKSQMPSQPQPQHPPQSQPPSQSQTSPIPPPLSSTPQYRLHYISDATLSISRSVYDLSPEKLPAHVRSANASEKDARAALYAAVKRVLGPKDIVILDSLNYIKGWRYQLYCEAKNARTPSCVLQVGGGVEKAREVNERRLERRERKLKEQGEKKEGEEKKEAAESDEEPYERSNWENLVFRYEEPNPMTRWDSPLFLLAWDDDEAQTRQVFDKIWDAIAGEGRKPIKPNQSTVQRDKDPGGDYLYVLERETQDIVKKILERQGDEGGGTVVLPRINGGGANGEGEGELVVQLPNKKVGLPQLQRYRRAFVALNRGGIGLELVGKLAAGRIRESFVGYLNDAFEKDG

CtKti12 [2] = target: T2, CtKti12 (Thermochaetoides thermophila, UniProt G0SHI1, K14A); assay: fluorescence polarization, one-site fit
T2 construct: gene CTHT_0070100; full-length, codon-optimized ORF in pET24d (NcoI/XhoI), purified from bacteria; PDB 6QP0 (earlier work) covers the ATPase domain only

CtKti12 [3] = target: T3, CtKti12 (Thermochaetoides thermophila, UniProt G0SHI1, K14L); assay: fluorescence polarization, one-site fit
T3 construct: gene CTHT_0070100; full-length, codon-optimized ORF in pET24d (NcoI/XhoI), purified from bacteria; PDB 6QP0 (earlier work) covers the ATPase domain only

CtKti12 [4] = target: T4, CtKti12 (Thermochaetoides thermophila, UniProt G0SHI1, K14V); assay: fluorescence polarization, one-site fit
T4 construct: gene CTHT_0070100; full-length, codon-optimized ORF in pET24d (NcoI/XhoI), purified from bacteria; PDB 6QP0 (earlier work) covers the ATPase domain only

CtKti12 [5] = target: T1, CtKti12; assay: fluorescence polarization, one-site fit

T3 sequence (G0SHI1 entry or part of it K14L): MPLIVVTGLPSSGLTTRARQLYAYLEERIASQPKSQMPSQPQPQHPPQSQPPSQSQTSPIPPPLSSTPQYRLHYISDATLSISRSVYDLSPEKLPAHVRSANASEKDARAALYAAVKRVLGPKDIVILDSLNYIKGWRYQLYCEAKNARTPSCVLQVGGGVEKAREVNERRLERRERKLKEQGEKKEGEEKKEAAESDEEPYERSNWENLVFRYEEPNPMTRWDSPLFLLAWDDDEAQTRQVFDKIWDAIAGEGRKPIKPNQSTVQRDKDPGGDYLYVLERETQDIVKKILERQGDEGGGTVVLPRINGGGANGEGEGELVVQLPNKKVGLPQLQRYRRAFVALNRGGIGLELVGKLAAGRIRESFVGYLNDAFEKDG
T4 sequence (G0SHI1 entry or part of it K14V): as the sequence (G0SHI1 entry or part of it K14L) above, with L14V counted along it
T2 sequence (G0SHI1 entry or part of it K14A): as the sequence (G0SHI1 entry or part of it K14L) above, with L14A counted along it

melting point without ATP to with ATP (CtKti12 [1]) [°C]	Kd (CtKti12 [2]) [µM]	Kd (CtKti12 [3]) [µM]	Kd (CtKti12 [4]) [µM]	Kd (CtKti12 [5]) [µM]	Compound
46.0 to 50.0					Nc1ncnc2c1ncn2[C@@H]1O[C@H](COP(=O)(O)OP(=O)(O)OP(=O)(O)O)[C@@H](O)[C@H]1O [ATP]
	> 100	25 ± 2.4	> 100	1.5 ± 0.2	CNc1ccccc1C(=O)O[C@H]1[C@@H](O)[C@H](n2cnc3c(N)ncnc32)O[C@@H]1CO[P@@](=O)(O)O[P@](=O)(O)OP(=O)(O)O [MANT-ATP]

Source: PMC7363723, “Fungal Kti12 proteins display unusual linker regions and unique ATPase p-loops” (Current Genetics, 2020)
